In patent publication US9676704B2, “Pesticidal compositions and processes related thereto” (Dow AgroSciences LLC, priority 2014, dated 2017):

Experiments:
[1] = tested on: Yellow Fever Mosquito (YFM); assay type: in vivo, Aedes aegypti; conditions: 15 μL of diluted 4000 ppm master solution per well, about 1 day-old larvae, 3 days
Experimental: Master plates containing 400 μg of a molecule dissolved in 100 μL of dimethyl sulfoxide (DMSO) (equivalent to a 4000 ppm solution) are used. A master plate of assembled molecules contains 15 μL per well. To this plate, 135 μL of a 90:10 water:acetone mixture is added to each well. A robot (Biomek® NXP Laboratory Automation Workstation) is programmed to dispense 15 μL aspirations from the master plate into an empty 96-well shallow plate (“daughter” plate). There are 6 reps (“daughter” plates) created per master. The created daughter plates are then immediately infested with YFM larvae. The day before plates are to be treated, mosquito eggs are placed in Millipore water containing liver powder to begin hatching (4 g. into 400 mL). After the daughter plates are created using the robot, they are infested with 220 μL of the liver powder/larval mosquito mixture (about 1 day-old larvae). After plates are infested with mosquito larvae, a non-evaporative lid is used to cover the plate to reduce drying. Plates are held at room temperature for 3 days prior to grading. After 3 days, each well is observed and scored based on mortality. The results are indicated in the table entitled “Table ABC: Assay Results (F)” and “Table ABCD: Assay Results (C)” (See Table Section). Pesticidally Acceptable Acid Addition Salts, Salt Derivatives, Solvates, Ester Derivatives, Polymorphs, Isotopes and Radionuclides

Beet Armyworm (BAW) = assay: Bioassays on BAW, 128-well diet tray assay; assay type: in vivo; conditions: Spodoptera exigua, 168 h; 50 μg/cm^2 on artificial diet, second instar larvae, five to seven days, 25° C.; read-out: BAW % Control (or Mortality) rating
Experimental: Bioassays on BAW were conducted using a 128-well diet tray assay. one to five second instar BAW larvae were placed in each well (3 mL) of the diet tray that had been previously filled with 1 mL of artificial diet to which 50 μg/cm^2 of the test compound (dissolved in 50 μL of 90:10 acetone-water mixture) had been applied (to each of eight wells) and then allowed to dry. Trays were covered with a clear self-adhesive cover, and held at 25° C., 14:10 light-dark for five to seven days. Percent mortality was recorded for the larvae in each well; activity in the eight wells was then averaged. The results are indicated in the tables entitled “Table ABC: Assay Results (F)”, “Table ABCD: Assay Results (C)”, and “Table ABCDE: Assay Results (P)” (See Table Section).
(§1) Bioassays on BAW and CL were conducted according to the procedures outlined in Example A: Bioassays on Beet Armyworm (“BAW”) and Cabbage Looper (“CL”) using the following concentrations: 5, 0.5, and 0.05 μg/cm^2.

Cabbage Looper (CL) = assay: Bioassays on CL, 128-well diet tray assay; assay type: in vivo; conditions: Trichoplusia ni, 168 h; 50 μg/cm^2 on artificial diet, second instar larvae, five to seven days, 25° C.; read-out: CL % Control (or Mortality) rating
Experimental: Bioassays on CL were conducted using a 128-well diet tray assay. One to five second instar CL larvae were placed in each well (3 mL) of the diet tray that had been previously filled with 1 mL of artificial diet to which 50 μg/cm^2 of the test compound (dissolved in 50 μL of 90:10 acetone-water mixture) had been applied (to each of eight wells) and then allowed to dry. Trays were covered with a clear self-adhesive cover, and held at 25° C., 14:10 light-dark for five to seven days. Percent mortality was recorded for the larvae in each well; activity in the eight wells was then averaged. The results are indicated in the table entitled “Table ABC: Assay Results (F)”, “Table ABCD: Assay Results (C)”, and “Table ABCDE: Assay Results (P)” (See Table Section).
as §1

Compound | YFM % Control (or Mortality) rating [1] | mortality at 50 µg/cm2 (Beet Armyworm (BAW)) | mortality at 50 µg/cm2 (Cabbage Looper (CL))
C[C@H](NC(=O)CCCC(C)(C)C)NC(=O)c1ccc(/C=C/C(c2cc(Cl)c(Cl)c(Cl)c2)C(F)(F)F)cc1C(F)(F)F (stereo partly drawn) [Compound F18, N—((R)-1-(5,5-Dimethylhexanamido)ethyl)-4-((E)-4,4,4-trifluoro-3-(3,4,5-trichlorophenyl)but-1-en-1-yl)-2-(trifluoromethyl)benzamide] | A (80-100) | 50 to 100% | 50 to 100%
CN(CCNC(=O)c1ccc(/C=C/C(c2cc(Cl)c(Cl)c(Cl)c2)C(F)(F)F)cc1C(F)(F)F)C(=O)CC(F)(F)F (stereo not drawn) [Compound F20, (E)-4-(4,4,4-trifluoro-3-(3,4,5-trichlorophenyl)but-1-en-1-yl)-N-(2-(3,3,3-trifluoro-N-methylpropanamido)ethyl)-2-(trifluoromethyl)benzamide] | A (80-100) | 50 to 100% | 50 to 100%
CN(CCNC(=O)c1ccc(/C=C/C(c2cc(Cl)c(Cl)c(Cl)c2)C(F)(F)F)cc1C(F)(F)F)C(=O)C(F)(F)F (stereo not drawn) [Compound F21, (E)-4-(4,4,4-trifluoro-3-(3,4,5-trichlorophenyl)but-1-en-1-yl)-N-(2-(2,2,2-trifluoro-N-methylacetamido)ethyl)-2-(trifluoromethyl)benzamide] | B (More than 0-Less than 80) | 50 to 100% | 50 to 100%
CN(NC(=O)c1ccc(/C=C/C(c2cc(Cl)c(Cl)c(Cl)c2)C(F)(F)F)cc1C(F)(F)F)C(=O)CC(F)(F)F (stereo not drawn) [Compound F22, (E)-N′-methyl-4-(4,4,4-trifluoro-3-(3,4,5-trichlorophenyl)but-1-en-1-yl)-2-(trifluoromethyl)-N′-(3,3,3-trifluoropropanoyl)benzohydrazide] | A (80-100) | 50 to 100% | 50 to 100%
CN(NC(=O)c1ccc(/C=C/C(c2cc(Cl)c(Cl)c(Cl)c2)C(F)(F)F)cc1C(F)(F)F)C(=O)CCC(F)(F)F (stereo not drawn) [Compound F23, (E)-N′-Methyl-4-(4,4,4-trifluoro-3-(3,4,5-trichlorophenyl)but-1-en-1-yl)-N′-(4,4,4-trifluorobutanoyl)-2-(trifluoromethyl)benzohydrazide] | A (80-100) | 50 to 100% | 50 to 100%
C[C@H](NC(=O)CC(F)(F)F)NC(=O)c1ccc(/C=C/C(c2cc(Br)c(Cl)c(Br)c2)C(F)(F)F)cc1C(F)(F)F (stereo partly drawn) [Compound P2, 4-((E)-3-(3,5-Dibromo-4-chlorophenyl)-4,4,4-trifluorobut-1-en-1-yl)-2-(trifluoromethyl)-N—((R)-1-(3,3,3-trifluoropropanamido)ethyl)benzamide] | A (80-100) | 50 to 100% | 50 to 100%
C[C@H](NC(=O)CC(F)(F)F)NC(=O)c1ccc(/C=C/C(c2cc(Br)cc(Br)c2)C(F)(F)F)cc1C(F)(F)F (stereo partly drawn) [Compound P3, 4-((E)-3-(3,5-Dibromophenyl)-4,4,4-trifluorobut-1-en-1-yl)-2-(trifluoromethyl)-N—((R)-1-(3,3,3-trifluoropropanamido)ethyl)benzamide] | B (More than 0-Less than 80) | 50 to 100% | 50 to 100%
C[C@H](NC(=O)CC(F)(F)F)NC(=O)c1ccc(/C=C/C(c2cc(Cl)c(Br)c(Cl)c2)C(F)(F)F)cc1C(F)(F)F (stereo partly drawn) [Compound P4, 4-((E)-3-(4-Bromo-3,5-dichlorophenyl)-4,4,4-trifluorobut-1-en-1-yl)-2-(trifluoromethyl)-N—((R)-1-(3,3,3-trifluoropropanamido)ethyl)benzamide] | A (80-100) | 50 to 100% | 50 to 100%
Cc1cc(/C=C/C(c2cc(Cl)c(F)c(Cl)c2)C(F)(F)F)ccc1C(=O)N[C@H](C)NC(=O)CC(F)(F)F (stereo partly drawn) [Compound P5, 4-((E)-3-(3,5-Dichloro-4-fluorophenyl)-4,4,4-trifluorobut-1-en-1-yl)-2-methyl-N—((R)-1-(3,3,3-trifluoropropanamido)ethyl)benzamide] | A (80-100) | 50 to 100% | 50 to 100%
Cc1cc(/C=C/C(c2cc(Br)c(Cl)c(Br)c2)C(F)(F)F)ccc1C(=O)N[C@H](C)NC(=O)CC(F)(F)F (stereo partly drawn) [Compound P6, 4-((E)-3-(3,5-Dibromo-4-chlorophenyl)-4,4,4-trifluorobut-1-en-1-yl)-2-methyl-N—((R)-1-(3,3,3-trifluoropropanamido)ethyl)benzamide] | A (80-100) | 50 to 100% | 50 to 100%
Cc1cc(/C=C/C(c2cc(Br)cc(Br)c2)C(F)(F)F)ccc1C(=O)N[C@H](C)NC(=O)CC(F)(F)F (stereo partly drawn) [Compound P7, 4-((E)-3-(3,5-Dibromophenyl)-4,4,4-trifluorobut-1-en-1-yl)-2-methyl-N—((R)-1-(3,3,3-trifluoropropanamido)ethyl)benzamide] | A (80-100) | 50 to 100% | 50 to 100%
C[C@H](NC(=O)CCC(F)(F)F)NC(=O)c1ccc(/C=C/C(c2cc(Br)c(Cl)c(Br)c2)C(F)(F)F)cc1C(F)(F)F (stereo partly drawn) [Compound P10, 4-((E)-3-(3,5-Dibromo-4-chlorophenyl)-4,4,4-trifluorobut-1-en-1-yl)-N—((R)-1-(4,4,4-trifluorobutanamido)ethyl)-2-(trifluoromethyl)benzamide] | A (80-100) | 50 to 100% | 50 to 100%
C[C@H](NC(=O)CCC(F)(F)F)NC(=O)c1ccc(/C=C/C(c2cc(Br)cc(Br)c2)C(F)(F)F)cc1C(F)(F)F (stereo partly drawn) [Compound P11, 4-((E)-3-(3,5-Dibromophenyl)-4,4,4-trifluorobut-1-en-1-yl)-N—((R)-1-(4,4,4-trifluorobutanamido)ethyl)-2-(trifluoromethyl)benzamide] | A (80-100) | 50 to 100% | 50 to 100%
C[C@H](NC(=O)CCC(F)(F)F)NC(=O)c1ccc(/C=C/C(c2cc(Cl)c(Br)c(Cl)c2)C(F)(F)F)cc1C(F)(F)F (stereo partly drawn) [Compound P12, 4-((E)-3-(4-Bromo-3,5-dichlorophenyl)-4,4,4-trifluorobut-1-en-1-yl)-N—((R)-1-(4,4,4-trifluorobutanamido)ethyl)-2-(trifluoromethyl)benzamide] | A (80-100) | 50 to 100% | 50 to 100%
Cc1cc(/C=C/C(c2cc(Cl)c(F)c(Cl)c2)C(F)(F)F)ccc1C(=O)N[C@H](C)NC(=O)CCC(F)(F)F (stereo partly drawn) [Compound P13, 4-((E)-3-(3,5-Dichloro-4-fluorophenyl)-4,4,4-trifluorobut-1-en-1-yl)-2-methyl-N—((R)-1-(4,4,4-trifluorobutanamido)ethyl)benzamide] | A (80-100) | 50 to 100% | 50 to 100%
Cc1cc(/C=C/C(c2cc(Br)c(Cl)c(Br)c2)C(F)(F)F)ccc1C(=O)N[C@H](C)NC(=O)CCC(F)(F)F (stereo partly drawn) [Compound P14, 4-((E)-3-(3,5-Dibromo-4-chlorophenyl)-4,4,4-trifluorobut-1-en-1-yl)-2-methyl-N—((R)-1-(4,4,4-trifluorobutanamido)ethyl)benzamide] | A (80-100) | 50 to 100% | 50 to 100%
